Read-outs that look alike come from different tables or passages of the source.
What was measured:
Format in all cases: cell-based, human
[1] = system: A549/ATCC; assay: SRB anticancer assay, non-small lung; conditions: Homo sapiens, 48 h
[2] = system: OVCAR-8; assay: SRB anticancer assay, ovarian; conditions: Homo sapiens, OVCAR-8, 48 h
[3] = system: KM12; assay: SRB anticancer assay, colon; conditions: Homo sapiens, KM12, 48 h
[4] = system: SNB-19; assay: SRB anticancer assay, CNS; conditions: Homo sapiens, SNB-19, 48 h
[5] = system: DU-145; assay: SRB anticancer assay, prostate; conditions: Homo sapiens, DU-145, 48 h
[6] = system: SK-OV-3; assay: SRB anticancer assay, ovarian; conditions: Homo sapiens, SK-OV-3, 48 h
[7] = system: SF-539; assay: SRB anticancer assay, CNS; conditions: Homo sapiens, SF-539, 48 h
[8] = system: ACHN; assay: SRB anticancer assay, renal; conditions: Homo sapiens, 48 h
[9] = system: NCI/ADR-RES; assay: SRB anticancer assay, ovarian; conditions: Homo sapiens, NCI/ADR-RES, 48 h
[10] = system: COLO 205; assay: SRB anticancer assay, colon; conditions: Homo sapiens, COLO 205, 48 h
[11] = system: MDA-MB-231/ATCC; assay: SRB anticancer assay, breast; conditions: Homo sapiens, MDA-MB-231, 48 h, MDA-MB-231/ATCC (row head MDA-MB-), 48 h; read-out: GI50
[12] = system: OVCAR-4; assay: SRB anticancer assay, ovarian; conditions: Homo sapiens, OVCAR-4, 48 h
[13] = system: Leukemia cancer cell lines; assay: SRB anticancer assay, panel result
Protocol: (§1) The compounds were evaluated for anticancer activity against sixty human cancer cells derived from nine cancer types (leukemia cell line, non-small-cell lung cell line, colon cell line, CNS cell line, melanoma cell line, ovarian cell line, prostate cell line, renal cancer cell line and breast cancer cell line) as shown in Table 1. For each compound, dose response curves for each cell line were measured at a minimum of five concentrations at 10 fold dilutions. A protocol of 48 h continuous drug exposure was used and a sulforhodamine B (SRB) protein assay was used to estimate cell viability or growth.

[14] = system: Breast cancer cell lines; assay: SRB anticancer assay, panel result
Protocol: as §1

[15] = system: Ovarian cancer cell lines; assay: SRB anticancer assay, panel result
Protocol: as §1

[16] = system: CNS cancer cell lines; assay: SRB anticancer assay, panel result
Protocol: as §1

[17] = system: Non-small cell lung cancer cell lines; assay: SRB anticancer assay, panel result
Protocol: as §1

[18] = system: Melanoma cancer cell lines; assay: SRB anticancer assay, panel result
Protocol: as §1

[19] = system: Renal cancer cell lines; assay: SRB anticancer assay, panel result
Protocol: as §1

[20] = system: Prostate cancer cell lines; assay: SRB anticancer assay, panel result
Protocol: as §1

[21] = system: Colon cancer cell lines; assay: SRB anticancer assay, panel result
Protocol: as §1

[22] = system: U251; assay: SRB anticancer assay, CNS; conditions: Homo sapiens, U-251; U251, 48 h
[23] = system: UACC-257; assay: SRB anticancer assay, melanoma; conditions: Homo sapiens, UACC-257, 48 h
[24] = system: NCI-H522; assay: SRB anticancer assay, non-small lung; conditions: Homo sapiens, NCI-H522, 48 h
[25] = system: HT29; assay: SRB anticancer assay, colon; conditions: Homo sapiens, HT-29; HT29, 48 h

COc1cc(OC)c2sc(-c3ccc(-n4cncc4-c4cc(OC)c(OC)c(OC)c4)cc3)nc2c1 [Compound 6f, 5,7-Dimethoxy-2-(4-(5-(3,4,5-trimethoxyphenyl)-1H-imidazol-1-yl)phenyl)benzo[d]thiazole]
GI50 [1]: 6.16 µM
GI50 [2]: > 100 µM
GI50 [3]: 4.62 µM
GI50 [4]: > 100 µM
GI50 [5]: > 100 µM
GI50 [6]: > 100 µM
GI50 [7]: 8.59 µM
GI50 [8]: 6.67 µM
GI50 [9]: 5.65 µM
GI50 [10]: 4.51 µM
GI50 [11]: 3.51 µM
GI50 [12]: 3.25 µM
LC50 ([13]; Homo sapiens, Leukemia panel, 50% net cell death, read-out: mean graph midpoint value (MG_MID) of Log10 LC50 (converted)): > 100 µM
GI50 ([13]; Homo sapiens, Leukemia panel, read-out: mean graph midpoint value (MG_MID) of Log10 GI50 (converted)): 3.89 µM
GI50 ([13]; Homo sapiens, six leukemia cancer cell lines, exposure at least 48 h, read-out: GI50, range over the panel): 3.24 to 5.39 µM
mean graph midpoint value (MG_MID) of log10 TGI ([13]; Leukemia panel, total inhibition of net cell growth): >−4.0
mean graph midpoint value (MG_MID) of log10 TGI ([14]; Breast panel, total inhibition of net cell growth): >−4.0
CC50 ([14]; Homo sapiens, Breast panel, 50% net cell death, read-out: mean graph midpoint value (MG_MID) of Log10 LC50 (converted)): > 100 µM
GI50 ([14]; Homo sapiens, Breast panel, read-out: mean graph midpoint value (MG_MID) of Log10 GI50 (converted)): 3.8 µM
GI50 ([14]; Homo sapiens, six breast cancer cell lines, exposure at least 48 h, read-out: GI50, range over the panel): 3.27 to 5.23 µM
LC50 ([15]; Homo sapiens, Ovarian panel, 50% net cell death, read-out: mean graph midpoint value (MG_MID) of Log10 LC50 (converted)): > 100 µM
GI50 ([15]; Homo sapiens, Ovarian panel, read-out: mean graph midpoint value (MG_MID) of Log10 GI50 (converted)): 16.6 µM
GI50 ([15]; Homo sapiens, seven ovarian cancer cell lines, exposure at least 48 h, read-out: GI50, range over the panel): 3.25 to 5.87 µM
mean graph midpoint value (MG_MID) of log10 TGI ([15]; Ovarian panel, total inhibition of net cell growth): >−4.0
mean graph midpoint value (MG_MID) of log10 TGI ([16]; CNS panel, total inhibition of net cell growth): >−4.0
CC50 ([16]; Homo sapiens, CNS panel, 50% net cell death, read-out: mean graph midpoint value (MG_MID) of Log10 LC50 (converted)): > 100 µM
GI50 ([16]; Homo sapiens, CNS panel, read-out: mean graph midpoint value (MG_MID) of Log10 GI50 (converted)): 15.8 µM
GI50 ([16]; Homo sapiens, six CNS cancer cell lines, exposure at least 48 h, read-out: GI50, range over the panel): 4.15 to 8.59 µM
LC50 ([17]; Homo sapiens, Non-small cell lung panel, 50% net cell death, read-out: mean graph midpoint value (MG_MID) of Log10 LC50 (converted)): > 100 µM
GI50 ([17]; Homo sapiens, Non-small cell lung panel, read-out: mean graph midpoint value (MG_MID) of Log10 GI50 (converted)): 11.2 µM
GI50 ([17]; Homo sapiens, nine Non-small cell lung cancer cell lines, exposure at least 48 h, read-out: GI50, range over the panel): 3.27 to 75.9 µM
mean graph midpoint value (MG_MID) of log10 TGI ([17]; Non-small cell lung panel, total inhibition of net cell growth): >−4.0
LC50 ([18]; Homo sapiens, Melanoma panel, 50% net cell death, read-out: mean graph midpoint value (MG_MID) of Log10 LC50 (converted)): > 100 µM
GI50 ([18]; Homo sapiens, Melanoma panel, read-out: mean graph midpoint value (MG_MID) of Log10 GI50 (converted)): 6.61 µM
GI50 ([18]; Homo sapiens, nine melanoma cancer cell lines, exposure at least 48 h, read-out: GI50, range over the panel): 2.46 to 7.91 µM
mean graph midpoint value (MG_MID) of log10 TGI ([18]; Melanoma panel, total inhibition of net cell growth): >−4.0
CC50 ([19]; Homo sapiens, Renal panel, 50% net cell death, read-out: mean graph midpoint value (MG_MID) of Log10 LC50 (converted)): > 100 µM
GI50 ([19]; Homo sapiens, Renal panel, read-out: mean graph midpoint value (MG_MID) of Log10 GI50 (converted)): 6.61 µM
GI50 ([19]; Homo sapiens, eight renal cancer cell lines, exposure at least 48 h, read-out: GI50, range over the panel): 1.83 to 9.4 µM
mean graph midpoint value (MG_MID) of log10 TGI ([19]; Renal panel, total inhibition of net cell growth): >−4.0
LC50 ([20]; Homo sapiens, Prostate panel, 50% net cell death, read-out: mean graph midpoint value (MG_MID) of Log10 LC50 (converted)): > 100 µM
GI50 ([20]; Homo sapiens, Prostate panel, read-out: mean graph midpoint value (MG_MID) of Log10 GI50 (converted)): 16.2 µM
GI50 ([20]; Homo sapiens, two prostate cancer cell lines (PC-3, DU-145), exposure at least 48 h, read-out: GI50, range over the panel): 2.54 µM
mean graph midpoint value (MG_MID) of log10 TGI ([20]; Prostate panel, total inhibition of net cell growth): >−4.0
mean graph midpoint value (MG_MID) of log10 TGI ([21]; Colon panel, total inhibition of net cell growth): >−4.0
LC50 ([21]; Homo sapiens, Colon panel, 50% net cell death, read-out: mean graph midpoint value (MG_MID) of Log10 LC50 (converted)): > 100 µM
GI50 ([21]; Homo sapiens, Colon panel, read-out: mean graph midpoint value (MG_MID) of Log10 GI50 (converted)): 7.41 µM
GI50 ([21]; Homo sapiens, seven colon cancer cell lines, exposure at least 48 h, read-out: GI50, range over the panel): 3.92 to 5.96 µM
GI50 [22]: 4.15 µM
GI50 [23]: > 100 µM
GI50 [24]: 3.27 µM
GI50 [25]: 4.88 µM

Reference: US9187467B2, “2-phenyl benzothiazole linked imidazole compounds as potential anticancer agents and process for the preparation thereof” (Council of Scientific and Industrial Research, priority 2012, dated 2015)
